Assay [1] addresses T1, Amine oxidase [flavin-containing] B (Rattus norvegicus, UniProt P19643).
T1 sequence (P19643 whole entry): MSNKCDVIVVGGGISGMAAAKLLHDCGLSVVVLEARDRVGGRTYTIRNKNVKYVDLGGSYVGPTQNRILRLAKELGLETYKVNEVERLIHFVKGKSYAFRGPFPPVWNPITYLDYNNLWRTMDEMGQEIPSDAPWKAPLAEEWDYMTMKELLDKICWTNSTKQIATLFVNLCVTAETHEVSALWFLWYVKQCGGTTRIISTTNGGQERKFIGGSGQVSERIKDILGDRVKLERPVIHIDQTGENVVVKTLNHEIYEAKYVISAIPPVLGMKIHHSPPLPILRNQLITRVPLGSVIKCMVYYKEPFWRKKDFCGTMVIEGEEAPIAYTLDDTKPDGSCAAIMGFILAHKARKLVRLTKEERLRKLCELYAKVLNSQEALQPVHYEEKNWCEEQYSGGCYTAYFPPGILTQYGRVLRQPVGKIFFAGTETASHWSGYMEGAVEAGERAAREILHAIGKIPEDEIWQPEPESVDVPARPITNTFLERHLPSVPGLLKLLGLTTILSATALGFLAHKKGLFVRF
The assay is described as follows: Inhibition of MAOB in rat brain mitochondria.

The target of assay [2] is T2, Amine oxidase [flavin-containing] B (Mus musculus, UniProt Q8BW75).
T2 sequence (Q8BW75 whole entry): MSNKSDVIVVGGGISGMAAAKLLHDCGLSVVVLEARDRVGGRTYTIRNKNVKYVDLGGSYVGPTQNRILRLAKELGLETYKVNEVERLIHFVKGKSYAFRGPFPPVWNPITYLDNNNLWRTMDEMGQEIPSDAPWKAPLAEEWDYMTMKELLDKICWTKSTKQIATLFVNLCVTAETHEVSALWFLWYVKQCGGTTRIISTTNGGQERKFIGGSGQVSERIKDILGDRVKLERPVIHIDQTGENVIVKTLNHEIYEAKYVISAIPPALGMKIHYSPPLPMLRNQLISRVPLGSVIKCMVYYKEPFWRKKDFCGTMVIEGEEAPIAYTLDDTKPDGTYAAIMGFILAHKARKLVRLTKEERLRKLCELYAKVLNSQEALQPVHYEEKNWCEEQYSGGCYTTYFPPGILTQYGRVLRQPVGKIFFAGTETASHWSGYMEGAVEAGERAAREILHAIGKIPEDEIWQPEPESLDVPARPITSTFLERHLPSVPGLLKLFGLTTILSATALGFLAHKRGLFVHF
The assay is described as follows: Inhibition of mouse brain MAOB.

In assay [3] the target is T3, Amine oxidase [flavin-containing] A (Rattus norvegicus, UniProt P21396).
T3 sequence (P21396 whole entry): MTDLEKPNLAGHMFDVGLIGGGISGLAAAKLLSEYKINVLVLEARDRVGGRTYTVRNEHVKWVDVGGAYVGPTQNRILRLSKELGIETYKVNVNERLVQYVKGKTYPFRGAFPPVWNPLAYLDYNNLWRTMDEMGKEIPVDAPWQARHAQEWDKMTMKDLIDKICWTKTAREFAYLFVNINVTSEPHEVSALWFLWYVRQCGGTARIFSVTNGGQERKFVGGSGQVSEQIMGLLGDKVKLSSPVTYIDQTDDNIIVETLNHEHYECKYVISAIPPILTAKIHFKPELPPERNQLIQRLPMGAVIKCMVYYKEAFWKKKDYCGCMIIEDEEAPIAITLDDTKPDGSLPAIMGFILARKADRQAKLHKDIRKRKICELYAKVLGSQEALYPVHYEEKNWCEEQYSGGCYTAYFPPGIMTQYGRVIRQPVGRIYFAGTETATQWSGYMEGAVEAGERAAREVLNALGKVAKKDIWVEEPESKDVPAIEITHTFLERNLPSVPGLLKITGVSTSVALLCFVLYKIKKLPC
The assay is described as follows: Inhibition of MAOA in rat brain mitochondria.

The target in assay [4] is T4, Amine oxidase [flavin-containing] A (Mus musculus, UniProt Q64133).
T4 sequence (Q64133 whole entry): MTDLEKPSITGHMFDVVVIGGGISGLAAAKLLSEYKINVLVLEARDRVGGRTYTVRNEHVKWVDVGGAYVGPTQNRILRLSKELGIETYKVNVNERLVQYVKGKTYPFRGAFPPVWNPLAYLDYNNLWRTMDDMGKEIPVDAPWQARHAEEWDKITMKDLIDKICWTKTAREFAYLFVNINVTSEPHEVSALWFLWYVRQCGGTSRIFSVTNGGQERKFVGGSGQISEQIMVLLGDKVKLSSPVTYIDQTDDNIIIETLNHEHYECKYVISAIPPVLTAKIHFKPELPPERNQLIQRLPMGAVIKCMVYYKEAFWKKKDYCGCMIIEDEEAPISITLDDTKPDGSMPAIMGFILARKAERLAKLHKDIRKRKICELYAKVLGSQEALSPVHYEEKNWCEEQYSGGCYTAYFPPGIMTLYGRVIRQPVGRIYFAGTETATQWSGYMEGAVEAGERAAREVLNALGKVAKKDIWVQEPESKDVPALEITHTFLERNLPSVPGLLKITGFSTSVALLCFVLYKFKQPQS
The assay is described as follows: Inhibition of mouse brain MAOA.

For `O=C(/C=C/C=C/c1ccc2c(c1)OCO2)N1CCCCC1` [PIPERINE], the inhibition constant (Ki) (in general, the equilibrium dissociation constant of an inhibitor or competing ligand from its target) in assay [1] stood at 91.3 µM; in assay [2] it was 3.19 µM; in assay [3], 49.3 µM; in assay [4] it was 19 µM.
Take `COC(=O)/C=C/C=C/c1ccc2c(c1)OCO2` [METHYL PIPERATE]: the Ki turned out to be 1.6 µM in assay [2] and 27.1 µM in assay [4].

The record behind these values is ChEMBL document CHEMBL1153203, “Proposed structural basis of interaction of piperine and related compounds with monoamine oxidases” (Bioorg Med Chem Lett, 2010).
